Format in all cases: functional
Test [1] is filed under the species Rattus norvegicus. In words: Plasma concentration measured in rat adipose tissue after treatment with the compound.
Test [2] is filed under the species Rattus norvegicus. Kind of test: Partition coefficient in rat lung.
The species named for test [3] is Rattus norvegicus. In words: Plasma concentration measured in rat plasma after treatment with the compound.
The species named for test [4] is Rattus norvegicus. Kind of test: Plasma concentration measured in rat liver after treatment with the compound.
The species entered for test [5] is Rattus norvegicus. Kind of test: Plasma concentration measured in rat lung after treatment with the compound.
For test [6], the species on record is Rattus norvegicus. Kind of test: Partition coefficient in rat adipose tissue.
The species entered for test [7] is Rattus norvegicus. In words: Partition coefficient in rat spleen.
Test [8] is filed under the species Rattus norvegicus. Kind of test: Partition coefficient in rat liver.
The species entered for test [9] is Rattus norvegicus. In words: Plasma concentration measured in rat spleen after treatment with the compound.

In the case of `O=[N+]([O-])/C(Br)=C/C1CCC(Br)O1` (centres undefined), the C in the test listed under Rattus norvegicus [1] was 28.19 mg/mL; in the test filed under Rattus norvegicus [3], 8.9 mg/mL; in the test filed under Rattus norvegicus [4], 42.25 mg/mL; in the test listed under Rattus norvegicus [5] it was 17.04 mg/mL; in the test filed under Rattus norvegicus [9], 11.47 mg/mL. The PC worked out at 1.91 in the test filed under Rattus norvegicus [2], 3.17 in the test filed under Rattus norvegicus [6], 1.29 in the test listed under Rattus norvegicus [7] and 4.75 in the test filed under Rattus norvegicus [8].
